Consider 6 compounds from US5672604A, “1-phenylmethyl benzimidazole piperazine derivative” (Fabrica Espanola de Productos Quimicos y Farmaceuticos …, priority 1993, dated 1997).

One assay deals with serotonin 5HT3 receptor. Description: Inhibition of serotonin-induced Bezold-Jarisch reflex in anaesthetised rat. In kind it is in vivo, Wistar rats. Conditions: i.v., 5 minutes before serotonin. The procedure: After the arterial pressure (A.P.) and cardiac frequency (C.F.) parameters were stabilised, bradycardia reflex was induced by i.v. injection (the different dose of the drug tested) of 80 μv/kg (1 ml/kg) of serotonin dissolved in sterile physiological serum. Ten minutes later and after taking CF and AP back to constant levels, the products claimed herein were injected i.v. and after a lapse of five minutes, i.v. injection of the serotonin creatinine sulphate complex was repeated, quantifying the inhibition of the Bezold-Jarisch reflex.

The target of the next assay is T1, 5HT3 (Rattus norvegicus, UniProt P35563).
T1 construct: cort-ento; from tissue; host or cells: entorhinal cortex ('cort-ento')
T1 sequence (P35563 24-483): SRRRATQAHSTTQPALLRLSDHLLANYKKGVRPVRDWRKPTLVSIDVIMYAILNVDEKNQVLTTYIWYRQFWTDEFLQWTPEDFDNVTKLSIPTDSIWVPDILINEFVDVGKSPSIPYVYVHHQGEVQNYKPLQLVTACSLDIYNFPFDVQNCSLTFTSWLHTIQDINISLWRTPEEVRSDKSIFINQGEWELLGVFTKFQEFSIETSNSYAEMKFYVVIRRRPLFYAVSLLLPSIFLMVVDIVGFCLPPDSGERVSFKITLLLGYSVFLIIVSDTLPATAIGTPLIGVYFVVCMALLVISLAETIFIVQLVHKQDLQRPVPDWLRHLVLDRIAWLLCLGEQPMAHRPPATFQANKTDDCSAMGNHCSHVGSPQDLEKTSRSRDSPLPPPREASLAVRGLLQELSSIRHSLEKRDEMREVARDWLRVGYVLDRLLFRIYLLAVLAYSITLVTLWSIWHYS
Description: Bind 5HT3 cort-ento. In kind it is binding. Conditions: read-out: Bind 5HT3 cort-ento pki (converted).

The target in the next assay is T2, 5HT3 receptor (Cavia porcellus, UniProt O70212).
T2 construct: Guinea pig ileum fragments; from tissue; host or cells: guinea pig ileum fragments
T2 sequence (O70212 20-490): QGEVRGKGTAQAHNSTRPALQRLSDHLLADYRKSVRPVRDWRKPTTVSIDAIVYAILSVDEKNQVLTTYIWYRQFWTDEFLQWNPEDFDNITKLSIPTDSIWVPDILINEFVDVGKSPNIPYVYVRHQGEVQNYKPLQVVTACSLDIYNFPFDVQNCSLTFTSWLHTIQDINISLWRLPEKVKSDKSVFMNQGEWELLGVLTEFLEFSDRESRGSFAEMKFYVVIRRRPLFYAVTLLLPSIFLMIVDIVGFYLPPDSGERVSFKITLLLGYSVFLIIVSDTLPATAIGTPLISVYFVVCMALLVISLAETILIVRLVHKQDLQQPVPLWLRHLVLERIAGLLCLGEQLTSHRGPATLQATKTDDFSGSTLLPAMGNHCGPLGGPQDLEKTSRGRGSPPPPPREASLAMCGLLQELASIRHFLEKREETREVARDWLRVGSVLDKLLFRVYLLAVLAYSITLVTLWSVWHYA
Description: Inhibition of 2-methyl-serotonin induced contraction of guinea pig ileum. Here is the method: b) Guinea pig ileum fragments were submerged in K-H solution at 37° C. pH 7.4, oxygenated with carbogen (95% O2 and 5% CO2) and with an effective preload of 1-2 g. They remained in a stabilization period for 45-60 minutes. and the physiological solution was replaced every 15 minutes. After this time, contractions were induced every 15 minutes, adding 2-methyl-serotonin (final conc.: 10 μmol/l). […] The inhibition percentages and CI50 were subsequently calculated (Table I).

Setting [1] is: guinea pig ileum, contraction by 2-methyl-serotonin 10 μmol/l, incubation 15 minutes, read-out: 2-me-5HT g.p. ileum CI50.

Structures are written as SMILES. pIC50: −log10 of the molar value. Like-named read-outs stand apart in the source and are kept apart here.

`O=[N+]([O-])c1ccc2c(c1)nc(N1CCNCC1)n2Cc1ccccc1` [Product 3]: the “B-J reflex rat-anaesth. DE50” value in the assay on serotonin 5HT3 receptor is on record as 7.4 μg/kg iv. Further, on 5HT3, the Ki is 39.8 nM. Moreover, the pIC50 at 5HT3 receptor (setting [1]) is 7.98.

As to `Cc1ccc2c(c1)nc(N1CCNCC1)n2Cc1ccccc1` [Product 1, 5-methyl-1-phenylmethyl-2-piperazinyl-1H-benzimidazole], on 5HT3 receptor (setting [1]), the pIC50 was 7.55.

As for `Clc1cc2nc(N3CCNCC3)n(Cc3ccccc3)c2cc1Cl` [Product 6], the pIC50 on 5HT3 receptor (setting [1]) is 6.58.

Turning to `Fc1ccc2c(c1)nc(N1CCNCC1)n2Cc1ccccc1` [Product 4], on 5HT3 receptor (setting [1]), the pIC50 was 8.78.

Consider `Clc1ccc2c(c1)nc(N1CCNCC1)n2Cc1ccccc1` [Product 2], for which the pIC50 on 5HT3 receptor was 8.14.

As for `Oc1ccc2c(c1)nc(N1CCNCC1)n2Cc1ccccc1` [Product 5], on 5HT3 receptor (setting [1]), the pIC50 was 6.93.
